In ChEMBL document CHEMBL3751824, “Design, synthesis, and docking studies of phenylpicolinamide derivatives bearing 1H-pyrrolo[2,3-b]pyridine moiety as c-Met inhibitors” (Bioorg Med Chem, 2016):

Columns and labels:
MCF7 = experiment: cells; details: Homo sapiens, MCF7, 72 h
Description: Cytotoxicity against human MCF7 cells after 72 hrs by MTT assay

cells = details: Homo sapiens, PC-3, 72 h
Description: Cytotoxicity against human PC3 cells after 72 hrs by MTT assay

[1] = target: Hepatocyte growth factor receptor (Homo sapiens, UniProt P08581); experiment: Inhibition of c-Met (unknown origin) by mobility shift assay
A549 = experiment: Cytotoxicity against human A549 cells after 72 hrs by MTT assay; details: A549, 72 h
HeLa = experiment: Cytotoxicity against human HeLa cells after 72 hrs by MTT assay
HepG2 = experiment: Cytotoxicity against human HepG2 cells after 72 hrs by MTT assay; details: HepG2, 72 h

Chain of Hepatocyte growth factor receptor (P08581 whole entry): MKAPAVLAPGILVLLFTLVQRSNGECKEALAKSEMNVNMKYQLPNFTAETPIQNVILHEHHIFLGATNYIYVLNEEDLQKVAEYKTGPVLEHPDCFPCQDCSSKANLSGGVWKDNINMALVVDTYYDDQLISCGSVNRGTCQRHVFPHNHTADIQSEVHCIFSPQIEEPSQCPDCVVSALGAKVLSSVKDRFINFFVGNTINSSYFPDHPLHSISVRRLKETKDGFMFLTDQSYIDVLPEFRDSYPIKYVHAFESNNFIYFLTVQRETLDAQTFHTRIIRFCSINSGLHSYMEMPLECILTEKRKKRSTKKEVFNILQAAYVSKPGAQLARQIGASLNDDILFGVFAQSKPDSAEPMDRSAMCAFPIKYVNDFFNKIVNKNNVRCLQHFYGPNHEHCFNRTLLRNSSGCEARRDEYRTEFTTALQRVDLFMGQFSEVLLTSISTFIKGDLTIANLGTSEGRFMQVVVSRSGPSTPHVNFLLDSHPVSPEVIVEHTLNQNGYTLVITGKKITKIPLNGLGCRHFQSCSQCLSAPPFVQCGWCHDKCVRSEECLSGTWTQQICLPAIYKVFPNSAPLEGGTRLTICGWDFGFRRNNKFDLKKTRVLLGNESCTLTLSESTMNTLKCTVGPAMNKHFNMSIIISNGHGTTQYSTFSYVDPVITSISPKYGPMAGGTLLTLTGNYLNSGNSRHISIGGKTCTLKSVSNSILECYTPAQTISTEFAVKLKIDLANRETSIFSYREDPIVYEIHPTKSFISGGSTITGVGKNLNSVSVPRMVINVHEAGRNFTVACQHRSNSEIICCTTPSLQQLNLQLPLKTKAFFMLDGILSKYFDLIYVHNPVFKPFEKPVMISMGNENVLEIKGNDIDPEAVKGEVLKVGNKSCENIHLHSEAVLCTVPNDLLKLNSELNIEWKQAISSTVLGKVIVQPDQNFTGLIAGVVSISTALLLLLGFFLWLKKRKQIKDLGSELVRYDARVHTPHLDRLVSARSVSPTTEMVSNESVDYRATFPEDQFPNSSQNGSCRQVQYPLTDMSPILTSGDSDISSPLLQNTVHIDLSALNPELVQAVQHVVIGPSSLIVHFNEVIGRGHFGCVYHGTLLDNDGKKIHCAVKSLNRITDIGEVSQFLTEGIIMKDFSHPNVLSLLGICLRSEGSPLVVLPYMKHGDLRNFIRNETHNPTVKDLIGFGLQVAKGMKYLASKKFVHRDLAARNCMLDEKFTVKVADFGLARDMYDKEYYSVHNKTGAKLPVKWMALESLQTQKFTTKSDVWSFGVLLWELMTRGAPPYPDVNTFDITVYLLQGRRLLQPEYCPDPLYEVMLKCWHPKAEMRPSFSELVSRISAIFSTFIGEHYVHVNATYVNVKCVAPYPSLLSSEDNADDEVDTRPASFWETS

| Compound | IC50 (MCF7) [µM] | IC50 (cells) [µM] | IC50 [1] [µM] | IC50 (A549) [µM] | IC50 (HeLa) [µM] | IC50 (HepG2) [µM] |
| --- | --- | --- | --- | --- | --- | --- |
| COc1ccc(-c2ccc(C(=O)Nc3ccc(Oc4ccnc5[nH]ccc45)c(F)c3)nc2)cc1 | 10.1 | 0.65 | > 10 | 2.24 | – | – |
| Cc1cccc(-c2ccnc(C(=O)Nc3ccc(Oc4ccnc5[nH]ccc45)cc3)c2)c1 | 7.47 | 5.47 | – | 7.01 | – | – |
| O=C(Nc1ccc(Oc2ccnc3[nH]ccc23)c(F)c1)c1cc(-c2ccccc2)ccn1 | > 10 | > 10 | > 10 | 4.95 | – | – |
| O=C(Nc1ccc(Oc2ccnc3[nH]ccc23)c(F)c1)c1ccc(-c2ccccc2)cn1 | 4.39 | 0.76 | > 10 | 1.25 | – | – |
| Cc1ccc(-c2ccnc(C(=O)Nc3ccc(Oc4ccnc5[nH]ccc45)cc3)c2)cc1 | > 10 | > 10 | – | > 10 | – | – |
| O=C(Nc1ccc(Oc2ccnc3[nH]ccc23)c(F)c1)c1cc(-c2ccc(F)cc2)ccn1 | 9.52 | 0.71 | – | 1.09 | – | – |
| COc1ccc(-c2ccnc(C(=O)Nc3ccc(Oc4ccnc5[nH]ccc45)cc3)c2)cc1 | 8.21 | 9.62 | – | 6.97 | 7.53 | 11.7 |
| Cc1ccc(-c2ccc(C(=O)Nc3ccc(Oc4ccnc5[nH]ccc45)c(F)c3)nc2)cc1 | 8.02 | 2.64 | – | 2.3 | – | – |
| Cc1ccc(-c2ccnc(C(=O)Nc3ccc(Oc4ccnc5[nH]ccc45)c(F)c3)c2)cc1 | 8.43 | 3.97 | – | 3.12 | – | – |
| CCc1ccc(-c2ccnc(C(=O)Nc3ccc(Oc4ccnc5[nH]ccc45)c(F)c3)c2)cc1 | 7.47 | 2.96 | – | 3.37 | 8.63 | 10.4 |
| Cc1ccc(-c2ccnc(C(=O)Nc3ccc(Oc4ccnc5[nH]ccc45)c(F)c3)c2)c(C)c1 | 6.22 | 4.01 | – | 4.35 | 11.9 | 13.3 |
| COc1ccc(-c2ccc(C(=O)Nc3ccc(Oc4ccnc5[nH]ccc45)cc3)nc2)cc1 | > 10 | > 10 | – | > 10 | – | – |
| O=C(Nc1ccc(Oc2ccnc3[nH]ccc23)c(F)c1)c1ccc(-c2ccc(F)cc2F)cn1 | > 10 | 4.72 | – | 3.1 | – | – |
| COc1ccc(-c2ccnc(C(=O)Nc3ccc(Oc4ccnc5[nH]ccc45)c(F)c3)c2)cc1 | 9.11 | 0.02 | – | 1.04 | 5.89 | 13.3 |
| O=C(Nc1ccc(Oc2ccnc3[nH]ccc23)cc1)c1cc(-c2ccc(Cl)cc2)ccn1 | > 10 | 25.1 | – | 4.31 | – | – |
| O=C(Nc1ccc(Oc2ccnc3[nH]ccc23)c(F)c1)c1cc(-c2ccc(C(F)(F)F)cc2)ccn1 | 8.55 | 4.35 | > 10 | 4.92 | – | – |
| O=C(Nc1ccc(Oc2ccnc3[nH]ccc23)cc1)c1cc(-c2ccccc2)ccn1 | 3.75 | 3.27 | – | 2.92 | – | – |
| Cc1cccc(-c2ccnc(C(=O)Nc3ccc(Oc4ccnc5[nH]ccc45)c(F)c3)c2)c1 | 9.12 | 0.86 | – | 1.75 | 10.3 | 11.2 |
| O=C(Nc1ccc(Oc2ccnc3[nH]ccc23)c(F)c1)c1cc(-c2ccc(F)cc2F)ccn1 | > 10 | > 10 | > 10 | > 10 | – | – |
| O=C(Nc1ccc(Oc2ccnc3[nH]ccc23)c(F)c1)c1ccc(-c2ccc(F)cc2)cn1 | > 10 | 13.4 | > 10 | 6.01 | – | – |
| O=C(Nc1ccc(Oc2ccnc3[nH]ccc23)c(F)c1)c1ccc(-c2ccc(Cl)cc2)cn1 | > 10 | 3.03 | – | 10 | – | – |
| Cc1ccc(-c2ccc(C(=O)Nc3ccc(Oc4ccnc5[nH]ccc45)cc3)nc2)cc1 | > 10 | > 10 | – | > 10 | – | – |
| O=C(Nc1ccc(Oc2ccnc3[nH]ccc23)cc1)c1ccc(-c2ccc(F)cc2F)cn1 | > 10 | > 10 | > 10 | > 10 | – | – |
| O=C(Nc1ccc(Oc2ccnc3[nH]ccc23)cc1)c1cc(-c2ccc(C(F)(F)F)cc2)ccn1 | > 10 | 14.2 | > 10 | 3.95 | – | – |
| O=C(Nc1ccc(Oc2ccnc3[nH]ccc23)cc1)c1ccc(-c2ccc(Cl)cc2)cn1 | > 10 | > 10 | > 10 | > 10 | – | – |
| CCc1ccc(-c2ccc(C(=O)Nc3ccc(Oc4ccnc5[nH]ccc45)cc3)nc2)cc1 | > 10 | > 10 | > 10 | > 10 | – | – |
